Experimental data as given in patent US9763444B2, “Compositions and methods for repelling blood-sucking and biting insects, ticks and mites” (The United States of America, as represented by the …, priority 2013, dated 2017).

Tests used:
Ae. aegypti = assay: Minimum Effective Dosage (MED) test on treated cloth, mosquito repellency; type: in vivo, Aedes aegypti; settings: for Ae. aegypti Minimum Effective Dosage, M9: human subject M9; for Ae. aegypti Minimum Effective Dosage, M10: human subject M10
Protocol: Bioassay for mosquito repellent activity: Repellency screening test for experimental chemicals were carried out to identify candidates that might be useful repellents. The repellent efficacy was compared to that of the standard repellent, DEET. Experimental compounds were assessed in one of two ways: (1) a range of concentration was evaluated to determine the minimum effective dosage (MED) which was the concentration threshold of where the repellent began to fail and allowed bites, or (2) a predetermined concentration of each repellent was applied to cloth and the activity was evaluated over several days (or in some cases months) (Katritzky, A. R., et al., Proc. Nat. Acad. Sci. (US), 105, 7359-7364 (2008); Katritzky, A. R., et al., Journal of Med. Entomol., 47: 924-938 (2010)). When conducting assays for repellency, a failure point was also predetermined for those measurements. Since experiments described herein used about 500 female mosquitoes per test, the failure point was set at 1% (equal to 5 bites) received during a test interval. From 3 to 5 volunteers participated in the screening of each set of chemicals.
Minimum Effective Dosage (MED) Test: The MED bioassays on treated cloth were a method of screening to determine the minimum amount of a repellent needed to prevent bites. Experimental compounds were prepared in solution by combining 0.15 g of experimental chemical with 2 mL of acetone in a 7.1 mL screwtop glass vial. This solution was then serially diluted to obtain nine concentrations when applied on to the cloth patch: 1.5, 0.75, 0.375, 0.187, 0.094, 0.047, 0.023, 0.011, and 0.006 mg/cm^2. The standard N,N-diethyl-3-methylbenzamide (DEET) was also tested at the same concentration levels to serve as a control and a comparison for relative repellency. A 50 cm^2 (5 cm×10 cm) patch of muslin cloth was rolled lengthwise and placed into each of the glass vials and scaled with a screwtop so it soaked up the solution. Just prior to the experiment, the pieces of treated cloth were removed from the vials, affixed to card stock tabs (5 cm×3 cm) with staples, and hung with masking tape on a rack to dry and allow acetone to evaporate. Volunteers wore a latex glove over their hands, a nylon stocking over their arm, and then wrapped a plastic Velcro-sealed sleeve over their entire forearm with a 32 cm^2 (4 cm×8 cm) window cut-out to allow mosquitoes to bite through. The nylon stocking acted as a barrier between the dried cloth and the skin, an additional precaution with experimental compounds. Dried cloth patches were stretched across the window in the plastic sleeve and held in place with masking tape. Volunteers placed their sleeve-covered arms into a screened cage for a one minute period with approximately 500 female Ae. aegypti mosquitoes that had been preselected for host-seeking behavior using a draw box (Posey, K. H., and C. E. Schreck, Mosquito News, 41: 566-568 (1981)). […] The MED recorded was the lowest passing concentration level tested for the experimental compound. […] All human volunteers in the study provided informed consent to participate of a protocol approved by the University of Florida Human Use Institutional Review Board (IRB #636-2005).

female Aedes aegypti = assay: Knock down (KD) after forced contact with treated muslin cloth (insecticidal properties); type: in vivo; settings: 2 min forced exposure to treated cloth
Protocol: The minimum effective dosage (MED) for repellency of 99% of mosquitoes was determined by wearing treated muslin cloth with varying concentrations of the chemical. At a surface concentration of 0.011 mg/cm^2, nearly all mosquitoes are repelled from the surface. The insecticidal properties required a much higher concentration of 2. All tests were conducted by forcing mosquitoes (5 per replicate×5 replicates) into contact with treated muslin cloth.

[1] = Table 1 preliminary assay, human subject M4, highest concentration 1.500 mg/cm^2
[2] = Table 1 preliminary assay, human subject M5, highest concentration 1.500 mg/cm^2
[3] = Table 1 preliminary assay, human subject M8, highest concentration 1.500 mg/cm^2
[4] = Table 1 preliminary assay, highest concentration 1.500 mg/cm^2
[5] = Table 1 preliminary assay, mean of 5 volunteers
[6] = Table 5, subject M4, highest dose 0.375 mg/cm2 (0.187 for 7)
[7] = Table 5, subject M5, highest dose 0.375 mg/cm2 (0.187 for 7)
[8] = Table 5, subject M8, highest dose 0.375 mg/cm2 (0.187 for 7)

| SMILES | mosquito repellent activity against Ae. aegypti (in words) (Ae. aegypti; MED test on treated cloth) | Ae. aegypti Minimum Effective Dosage, M4 (Ae. aegypti; [1]) [mg/cm^2] | Ae. aegypti Minimum Effective Dosage, M5 (Ae. aegypti; [2]) [mg/cm^2] | Ae. aegypti Minimum Effective Dosage, M8 (Ae. aegypti; [3]) [mg/cm^2] | Ae. aegypti Minimum Effective Dosage, M9 (Ae. aegypti; [4]) [mg/cm^2] | Ae. aegypti Minimum Effective Dosage, M10 (Ae. aegypti; [4]) [mg/cm^2] | Ae. aegypti Minimum Effective Dosage, Average (Ae. aegypti; [5]) [mg/cm^2] | Ae. aegypti Minimum Effective Dosage, F1 (Ae. aegypti; Table 2, human subject F1, highest concentration 1.500 mg/cm^2) [mg/cm^2] | Ae. aegypti Minimum Effective Dosage, M1 (Ae. aegypti; Table 2, human subject M1, highest concentration 1.500 mg/cm^2) [mg/cm^2] | Ae. aegypti Minimum Effective Dosage, M2 (Ae. aegypti; Table 2, human subject M2, highest concentration 1.500 mg/cm^2) [mg/cm^2] | Ae. aegypti Minimum Effective Dosage, Average (Ae. aegypti; Table 2, mean of 3 volunteers) [mg/cm^2] | Ae. aegypti Minimum Effective Dosage, Average (Ae. aegypti; Table 5, mean of 3 volunteers) [mg/cm^2] | Ae. aegypti Minimum Effective Dosage, M4 (Ae. aegypti; [6]) [mg/cm^2] | Ae. aegypti Minimum Effective Dosage, M5 (Ae. aegypti; [7]) [mg/cm^2] | Ae. aegypti Minimum Effective Dosage, M8 (Ae. aegypti; [8]) [mg/cm^2] | MED for ~100% Repellency (ED99), surface concentration (Ae. aegypti; Table 7, treated cloth, female Aedes aegypti) [mg/cm^2] | KD100 @ 1 h, surface concentration (female Aedes aegypti; knock down counted after 1 h) [mg/cm^2] | KD100 @ 5 h, surface concentration (female Aedes aegypti; knock down counted after 5 h) [mg/cm^2] | KD100 @ 8 h, surface concentration (female Aedes aegypti; knock down counted after 8 h) [mg/cm^2] |
| --- | --- | --- | --- | --- | --- | --- | --- | --- | --- | --- | --- | --- | --- | --- | --- | --- | --- | --- | --- |
| CC1(C)C=Cc2c(CO)cccc2O1 [Compound 2] | act as mosquito repellents | 0.011 | 0.011 | 0.011 | 0.094 | 0.047 | 0.035 | 0.023 | 0.023 | 0.023 | 0.023 | 0.009 | 0.011 | 0.011 | 0.006 | 0.011 | 15.38 | 7.69 | 0.96 |
| CCN(CC)C(=O)c1cccc(C)c1 [DEET, N,N-diethyl-3-methylbenzamide, reference compound] |  | 0.111 | 0.023 | 0.023 | 0.023 | 0.023 | 0.021 |  |  |  |  | 0.015 | 0.011 | 0.011 | 0.023 |  |  |  |  |
